From patent US10358426B2, “Fungicidal substituted 2-[2-halogenalkyl-4-(phenoxy)-phenyl]-1-[1,2,4]triazol-1-yl-ethanol compounds” (BASF Agro B.V., priority 2011, dated 2019)

Legend:
[1] = tested on: Alternaria solani; test: Preventative fungicidal control of early blight on tomatoes, inoculation seven days later (Alteso P7), greenhouse; format: in vivo; conditions: tomato; for Disease (%) at 63 ppm Alteso P7: untreated control 100; for Disease (%) at 16 ppm Alteso P7: untreated control 90
[2] = tested on: Septoria tritici; test: Preventative control of leaf blotch on wheat, inoculation seven days later (Septtr P7), greenhouse; format: in vivo
[3] = tested on: Septoria tritici; test: Preventative control of leaf blotch on wheat, inoculation next day (Septtr P1), greenhouse; format: in vivo; conditions: for Disease(%) at 150 ppm Septtr P1: Use Example 6, untreated control 80; for Disease (%) at 150 pm Septtr P1: 150 ppm, Use Example 9, untreated control 90
[4] = tested on: Uncinula necator; test: Control of powdery mildew on grape (Uncine P3), greenhouse; format: in vivo; conditions: untreated control 100
Procedure: Preventative Control of Leaf Blotch on Wheat Caused by Septoria tritici (Septtr P7) Grape cuttings were grown in pots to the 4 to 5 leaf stage. […] Three days later the treated plants were inoculated with spores of Uncinula necator by shaking heavily infestated stock plants over the treated pots. […] Preventative Fungicidal Control of Early Blight on Tomatoes (Alternaria solani) (Alteso P7)

[5] = tested on: Pyricularia oryzae; test: microbe, parasite or virus in culture; format: cell-based; conditions: for activity at 2 ppm: Pyricularia oryzae, read-out: growth (relative growth in % of control)
[6] = tested on: Septoria tritici; test: Curative control of leaf blotch on wheat (Septtr K7), greenhouse; format: in vivo; conditions: untreated control 90
[7] = tested on: Pyrenophora teres; format: cell-based; conditions: 32 ppm; Use Example 10 M6
[8] = Use Example 8, untreated control 80
[9] = Use Example 11, untreated control 90
[10] = Use Example 6, untreated control 80

In the case of `OC(Cn1cncn1)c1ccc(Oc2ccc(Cl)cc2)cc1C(F)(F)F` (centres unmarked) [compound I-1], the “Disease (%) at 63 ppm Alteso P7” value [1] is reported as 3%, the “Disease (%) at 16 ppm Septtr P7” value [2, 8] is reported as 2% and the “Disease (%) at 16 ppm Septtr P7” value [2, 9] is reported as 3%. The “Disease(%) at 150 ppm Septtr P1” value [3] was 0%, the “Disease (%) at 16 ppm Uncine P3” value [4] was 0% and the “Growth (%) at 0.5 ppm Pyrior” value ([5]; Use Example 7) was 47%.

For `CCCC(O)(Cn1cncn1)c1ccc(Oc2ccc(Cl)cc2)cc1C(F)(F)F` (centres unmarked) [compound I-4], the “Disease (%) at 16 ppm Septtr P7” value [2, 8] was 25% and the “Growth (%) at 0.5 ppm Pyrior” value ([5]; Use Example 7) was 19%.

With `COC(Cn1cncn1)c1ccc(Oc2ccc(Cl)cc2)cc1C(F)(F)F` (centres unmarked) [compound I-14] the “Disease (%) at 16 ppm Septtr P7” value [2, 9] was 15%, the “Disease (%) at 150 pm Septtr P1” value [3] was 0% and the “Disease (%) at 16 ppm Septtr K7” value [6] was 20%.

With `CC(O)(Cn1cncn1)c1ccc(Oc2ccc(Cl)cc2)cc1Cl` (centres unmarked) [compound V18, reference compound] the “Disease (%) at 16 ppm Alteso P7” value [1] was 60%, the “Disease (%) at 16 ppm Septtr P7” value [2, 10] was 60% and the “Disease (%) at 16 ppm Septtr P7” value [2, 9] was 67%. The “Growth (%) at 0.5 ppm Pyrior” value ([5]; Use Example 6) was 82% and the “Growth (%) at 0.5 ppm Pyrior” value ([5]; Use Example 7) was 82%.

In the case of `CC(O)(Cn1cncn1)c1ccc(Oc2ccc(F)cc2)cc1C(F)(F)F` (centres unmarked) [compound I-16], the “Disease (%) at 150 pm Septtr P1” value [3] is reported as 0%.

For `CC(O)(Cn1cncn1)c1ccc(Oc2ccc(F)cc2)cc1Cl` (centres unmarked) [compound V19, reference compound], the “Disease (%) at 16 ppm Septtr P7” value [2, 8] was 60% and the “Disease (%) at 150 pm Septtr P1” value [3] was 40%.

In the case of `CCC(O)(Cn1cncn1)c1ccc(Oc2ccc(Cl)cc2)cc1C(F)(F)F` (centres unmarked) [compound I-3, 2-[4-(4-chloro-phenoxy)-2-trifluoromethyl-phenyl]-1[1,2,4]triazol-1-yl-butan-2-ol], the “Growth (%) at 0.5 ppm Pyrior” value ([5]; Use Example 7) is reported as 58% and the activity at 2 ppm [5] is reported as ≤ 4%.

With `CC#CC(O)(Cn1cncn1)c1ccc(Oc2ccc(Cl)cc2)cc1C(F)(F)F` (centres unmarked) [compound I-6, 2-[4-(4-chlorophenoxy)-2-(trifluoromethyl)phenyl]-1-(1,2,4-triazol-1-yl)pent-3-yn-2-ol] the “Disease (%) at 16 ppm Septtr P7” value [2, 8] was 0%, the melting point was 137 °C and the “Growth (%) at 0.5 ppm Pyrior” value ([5]; Use Example 7) was 37%.

With `OC(Cn1cncn1)c1ccc(Oc2ccc(Cl)cc2)cc1Cl` (centres unmarked) [compound V6, reference compound] the “Disease (%) at 63 ppm Alteso P7” value [1] was 40%, the “Disease (%) at 16 ppm Septtr P7” value [2, 9] was 30% and the “Disease(%) at 150 ppm Septtr P1” value [3] was 60%. The “Disease (%) at 16 ppm Uncine P3” value [4] was 40%.

In the case of `CC(C)C(O)(Cn1cncn1)c1ccc(Oc2ccc(Cl)cc2)cc1C(F)(F)F` (centres unmarked) [compound I-7, 2-[4-(4-chlorophenoxy)-2-(trifluoromethyl)phenyl]-3-methyl-1-(1,2,4-triazol-1-yl)butan-2-ol], the melting point is reported as 114 °C.

With `COC(C)(Cn1cncn1)c1ccc(Oc2ccc(Cl)cc2)cc1C(F)(F)F` (centres unmarked) [compound I-10, 1-[2-[4-(4-chlorophenoxy)-2-(trifluoromethyl)phenyl]-2-methoxy-propyl]-1,2,4-triazole] the activity at 2 ppm [5] was ≤ 4%.

In the case of `OC(Cn1cncn1)c1ccc(Oc2ccc(Cl)cc2Cl)cc1C(F)(F)F` (centres unmarked) [I-13], the “growth (relative growth in % of control)” value [7] is reported as 1%.

In the case of `CC(O)(Cn1cncn1)c1ccc(Oc2ccc(Cl)cc2)cc1C(F)(F)F` (centres unmarked) [compound I-2, 2-[4-(4-chloro-phenoxy)-2-trifluoromethyl-phenyl]-1-[1,2,4]triazol-1-yl-propan-2-ol], the “Disease (%) at 16 ppm Alteso P7” value [1] is reported as 15%, the “Disease (%) at 16 ppm Septtr P7” value [2, 10] is reported as 10% and the “Growth (%) at 0.5 ppm Pyrior” value ([5]; Use Example 6) is reported as 68%. The “Growth (%) at 0.5 ppm Pyrior” value ([5]; Use Example 7) was 68%.

In the case of `COC(Cn1cncn1)c1ccc(Oc2ccc(Cl)cc2)cc1Cl` (centres unmarked) [DE3801233 compound 2, reference compound], the “Disease (%) at 16 ppm Septtr P7” value [2, 9] is reported as 90%, the “Disease (%) at 150 pm Septtr P1” value [3] is reported as 30% and the “Disease (%) at 16 ppm Septtr K7” value [6] is reported as 80%.
